In the assay the target is T1, RORc ligand binding domain (Homo sapiens, UniProt P51449).
T1 construct: host or cells: E. coli
T1 sequence (P51449 269-508 limits assumed): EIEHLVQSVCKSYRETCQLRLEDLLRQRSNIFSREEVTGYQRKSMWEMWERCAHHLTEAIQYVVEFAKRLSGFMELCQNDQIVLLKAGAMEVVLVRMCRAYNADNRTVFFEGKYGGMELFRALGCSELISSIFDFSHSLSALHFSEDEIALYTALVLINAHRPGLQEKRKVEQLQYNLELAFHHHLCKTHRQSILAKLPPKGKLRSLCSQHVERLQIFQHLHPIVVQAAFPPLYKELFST
Nature of the assay: In Vitro RORc Ligand Binding Assay. As to conditions: radioligand 25-[3H]hydroxycholesterol 6 nM; 0.6 ug/mL RORc receptor; 3 h at 25° C.; read-out: IC50 values (micromolar) for RORc affinity. How it is done:
This assay was used to determine a compound's potency in inhibiting activity of RORc by determining, Kiapp, IC50, or percent inhibition values.
On day of the assay, 100 uL of 0.05% CHAPS (in deionized H2O) was added to all wells of the GFB Unifilter plate and allowed soak for 1 h. A wash buffer of 50 mM HEPES (pH 7.4), 150 mM NaCl, and 5 mM MgCl2 was prepared to wash the filter plate. To prepare an assay buffer, BSA was added to the wash buffer to reach 0.01% and DTT was added to reach 1 mM.
The 20× compound stocks were diluted in DMSO with Assay Buffer 4-fold to reach 5× the final test concentration in 25% DMSO (10 uL compound+30 uL Assay Buffer). Solutions were mixed by aspiration several times with a pipette set on 50 uL volume. For the assay, 10 uL of 5× compound stock solutions in 25% DMSO were added to the assay plate in duplicate.
For two point screening, 10 mM stock compound solutions were diluted in DMSO to obtain 200 uM (20× the high test concentration) and then diluted 10-fold further to reach 20 uM (20× the low test concentration). The 20× stocks were diluted 4-fold with Assay Buffer (10 uL compound+30 uL Assay Buffer) to reach 5× the test concentrations (50 uM and 5 uM) and 10 uL were added to two assay plates for the duplicate wells. With each concentration tested on 2 plates, each set of 80 compounds used 4 assay plates (1 uM and 10 uM, with n=2).
For 25-hydroxycholesterol in 25% DMSO/75% Assay Buffer; 10 uL per well was used for NSB samples. Wells for Total Binding and No Receptor sample determination contained 10 uL of 25% DMSO/75% Assay Buffer per well.
Radioligand (25-[^3H]hydroxycholesterol) Preparation
Added 20 uL to all wells to reach 6 nM final in the assay.
Stock receptor solution was diluted in assay buffer to obtain 1.5 ug/mL in Assay Buffer. 20 uL was added to all wells. For No R samples, 20 uL Assay Buffer was substituted for receptor solution.
Assay plates were 96-well polypropylene V-bottom plates. 10 uL of 5× compound in 25% DMSO/75% Assay Buffer was added to Test wells. 10 uL of 25% DMSO/75% Assay Buffer was added to Total Binding or No Receptor wells. 10 uL of 5 uM 25-hydroxycholesterol in 25% DMSO/75% Assay Buffer was added to NSB wells. […] 20 uL of 1.5 ug/mL RORc receptor was added to wells (or 40 uL Assay Buffer to No R wells). Following addition to the wells, the plates were incubated 3 h at 25° C.
Using a Packard Filtermate Harvester, the filter plates were washed 4 times following transfer of the incubated samples. Plates were dry-filtered completely (2 h at 50° C. or overnight at room temperature). 50 uL Microscint 0 was added to all wells and read on Topcount protocol Inverted.
Final concentrations were as follows: 50 mM HEPES buffer (pH 7.4); 150 mM NaCl; 1 mM DTT; 5 mM MgCl2; 0.01% BSA; 5% DMSO; 0.6 ug/mL RORc receptor; 6 nM 25-[^3H]hydroxycholesterol. For NSB wells, 1 uM 25-hydroxycholesterol was also present.

These results are taken from patent US20150105429A1, “BENZYL SULFONAMIDE DERIVATIVES AS RORC MODULATORS” (Genentech, Inc., priority 2011, published 2015).

What is called IC50 is the point on the concentration scale where inhibition reaches its midpoint. In the case of `CNS(=O)(=O)c1ccc(-c2ccc(CN(CC(C)C)S(=O)(=O)Cc3ccccc3)cc2)cc1` [Compound 9, 4′-[(Isobutyl-phenylmethanesulfonyl-amino)-methyl]-biphenyl-4-sulfonic acid methylamide], the IC50 stood at 0.065 µM.
Then `CNC(=O)c1ccc(-c2ccc(CN(CC(C)C)S(=O)(=O)Cc3ccccc3)s2)cn1` [Compound 51, 5-{5-[(Isobutyl-phenylmethanesulfonyl-amino)-methyl]-thiophen-2-yl}-pyridine-2-carboxylic acid methylamide], with 4.4 µM.
Then `CC(C)CN(Cc1ccc(-c2cccc(S(C)(=O)=O)c2)cc1)S(=O)(=O)Cc1ccccc1` [Compound 1, N-Isobutyl-N-(3′-methanesulfonyl-biphenyl-4-ylmethyl)-C-phenyl-methanesulfonamide], with 0.365 µM.
On to `CCn1cc(-c2ccc(CN(CC(C)C)S(=O)(=O)Cc3ccccc3)s2)cn1` [Compound 36, N-[5-(1-Ethyl-1H-pyrazol-4-yl)-thiophen-2-ylmethyl]-N-isobutyl-C-phenyl-methanesulfonamide], for which the concentration for half-maximal inhibition (IC50) came to 0.598 µM.
Then `CC(C)CN(Cc1ccc(-c2cccc(S(C)(=O)=O)c2)s1)S(=O)(=O)c1ccccc1` [Compound 28, N-Isobutyl-N-[5-(3-methanesulfonyl-phenyl)-thiophen-2-ylmethyl]-benzenesulfonamide], with 0.476 µM; and `CC(C)CN([C@@H](C)c1ccc(-c2ccc(C(N)=O)cc2)cc1)S(=O)(=O)Cc1ccccc1` [Compound 17, 4′-[(S)-1-(Isobutyl-phenylmethanesulfonyl-amino)-ethyl]-biphenyl-4-carboxylic acid amide], with 0.154 µM; and `CC(C)CN(Cc1ccc(-c2cccc(C(=O)N(C)C)c2)s1)S(=O)(=O)Cc1ccccc1` [Compound 43, 3-{5-[(Isobutyl-phenylmethanesulfonyl-amino)-methyl]-thiophen-2-yl}-N,N-dimethyl-benzamide], with 2.4 µM.
With `CC(C)CN(Cc1ccc(-c2cccc(C(N)=O)c2)s1)S(=O)(=O)Cc1ccccc1` [Compound 41, 3-{5-[(Isobutyl-phenylmethanesulfonyl-amino)-methyl]-thiophen-2-yl}-benzamide], the 50% inhibitory concentration (IC50) is 1.4 µM.
For `CC(C)CN(Cc1ccc(-c2cccc(S(C)(=O)=O)c2)s1)S(=O)(=O)Cc1ccc(F)cc1` [Compound 30, C-(4-Fluoro-phenyl)-N-isobutyl-N-[5-(3-methanesulfonyl-phenyl)-thiophen-2-ylmethyl]-methanesulfonamide] the value was 1.4 µM; for `CC(C)CN(Cc1ncc(-c2ccc(S(C)(=O)=O)c(F)c2)s1)S(=O)(=O)Cc1ccccc1` [Compound 64, N-((5-(3-fluoro-4-(methylsulfonyl)phenyl)thiazol-2-yl)methyl)-N-isobutyl-1-phenylmethanesulfonamide], 2 µM; for `CC(C)CN(Cc1ccc(-c2ccc(S(C)(=O)=O)cc2)c(C#N)c1)S(=O)(=O)Cc1ccccc1` [Compound 69, N-((2-cyano-4′-(methylsulfonyl)-[1,1′-biphenyl]-4-yl)methyl)-N-isobutyl-1-phenylmethanesulfonamide], 0.074 µM.
Then `CC(C)CN(Cc1ccc(-c2cccc(S(C)(=O)=O)c2)s1)S(=O)(=O)Cc1cccc(F)c1` [Compound 31, C-(3-Fluoro-phenyl)-N-isobutyl-N-[5-(3-methanesulfonyl-phenyl)-thiophen-2-ylmethyl]-methanesulfonamide], with 1.3 µM; and `CC(C)CN(Cc1ccc(-c2cncc(C#N)c2)s1)S(=O)(=O)Cc1ccccc1` [Compound 50, N-[5-(5-Cyano-pyridin-3-yl)-thiophen-2-ylmethyl]-N-isobutyl-C-phenyl-methanesulfonamide], with 3.1 µM; and `CC(C)CN(Cc1ccc(-c2cccc(S(C)(=O)=O)c2)s1)S(=O)(=O)c1cccnc1` [Compound 62, Pyridine-3-sulfonic acid isobutyl-[5-(3-methanesulfonyl-phenyl)-thiophen-2-ylmethyl]-amide], with 4.2 µM.
